Numbered stars: 1 amine (or outer) side, 2 acyl side, 3 side chain; on linkers, the order of the positions; unused ones are H or OH. Bridge positions count the residues as written; N and C are the ends. Square brackets hold non-standard residues; d marks the D form. Side chains are listed from the residue outwards. Peptide text beside a SMILES is read from it. * marks the point of attachment. C20 diacid = O=C(O)CCCCCCCCCCCCCCCCCCC(=O)*; C18 diacid = O=C(O)CCCCCCCCCCCCCCCCC(=O)*; γGlu = O=C(O)[C@H](CCC(=O)[*:2])N[*:1]; Hyp = O=C(O)[C@@H]1C[C@@H](O)CN1; AEEA = NCCOCCOCC(=O)O

The experiment deals with T1, human amylin receptor (Homo sapiens, UniProt O60896+P30988).
T1 construct: host or cells: CHO-K1/Ga15/AMY3 cells, further stably transfected with a CRE-luciferase plasmid
T1 sequence (P30988 25-474): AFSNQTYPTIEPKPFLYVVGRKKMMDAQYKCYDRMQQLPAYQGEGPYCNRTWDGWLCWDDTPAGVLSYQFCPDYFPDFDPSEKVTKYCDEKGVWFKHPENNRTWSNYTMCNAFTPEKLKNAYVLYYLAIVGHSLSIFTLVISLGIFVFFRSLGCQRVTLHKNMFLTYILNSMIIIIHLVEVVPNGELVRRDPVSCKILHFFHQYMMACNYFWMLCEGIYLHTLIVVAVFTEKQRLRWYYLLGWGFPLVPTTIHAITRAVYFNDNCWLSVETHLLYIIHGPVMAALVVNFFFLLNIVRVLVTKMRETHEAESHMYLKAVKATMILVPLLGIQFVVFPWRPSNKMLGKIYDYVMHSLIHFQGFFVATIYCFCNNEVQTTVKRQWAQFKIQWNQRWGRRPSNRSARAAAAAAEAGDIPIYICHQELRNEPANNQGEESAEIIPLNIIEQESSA
T1 sequence (O60896 24-148 partner): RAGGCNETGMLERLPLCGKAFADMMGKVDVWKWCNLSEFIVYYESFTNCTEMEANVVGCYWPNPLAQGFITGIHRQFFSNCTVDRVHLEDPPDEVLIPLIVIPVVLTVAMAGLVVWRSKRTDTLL
The experiment in a line: Luciferase assay of amylin derivatives in amylin receptor/CRE-luc CHO cell line. In kind it is cell-based. As to conditions: CHO-K1/Ga15/AMY3 CRE-luc cells, 24 hours incubation, F12 medium containing 10% FBS; read-out: EC50.
Description: The experiment was intended to detect the activity or efficacy of the amylin derivatives on a human amylin receptor in vitro by luciferase assay.
50 μL of growth medium (F12 medium containing 10% FBS) was added into each well of a white 96-well plate, and the stably transfected amylin/CRE-lue CHO cells were inoculated into the white 96-well plate at a density of about 20,000 cells/well for activity determination.
Take `CC[C@H](C)[C@H](NC(=O)[C@@H]1CCCN1C(=O)CNC(=O)[C@H](CC(C)C)NC(=O)[C@H](CCCCNC(=O)COCCOCCNC(=O)CC[C@H](NC(=O)CCCCCCCCCCCCCCCCCCC(=O)O)C(=O)O)NC(=O)[C@H](CC(N)=O)NC(=O)[C@H](CO)NC(=O)[C@H](CO)NC(=O)[C@H](Cc1c[nH]cn1)NC(=O)[C@H](CCCNC(=N)N)NC(=O)[C@H](CC(C)C)NC(=O)[C@H](Cc1ccccc1)NC(=O)[C@H](CC(=O)O)NC(=O)[C@H](C)NC(=O)[C@H](CC(C)C)NC(=O)[C@H](CCCNC(=N)N)NC(=O)[C@H](CCC(N)=O)NC(=O)[C@@H](NC(=O)[C@H](C)NC(=O)[C@@H]1CSSC[C@H](NC(=O)[C@@H](N)CCCNC(=N)N)C(=O)N[C@@H](CC(N)=O)C(=O)N[C@@H]([C@@H](C)O)C(=O)N[C@@H](C)C(=O)N[C@@H]([C@@H](C)O)C(=O)N1)[C@@H](C)O)C(=O)N[C@@H](CC(C)C)C(=O)N1CCC[C@H]1C(=O)N1CCC[C@H]1C(=O)N[C@H](C(=O)N[C@@H](CC(N)=O)C(=O)N[C@H](C(=O)NCC(=O)N[C@@H](CO)C(=O)N[C@@H](CC(N)=O)C(=O)N[C@H](C(=O)N1C[C@H](O)C[C@H]1C(N)=O)[C@@H](C)O)C(C)C)[C@@H](C)O` [PD112] (H-RCNTATCATQRLADFLRHSSNK([AEEA-γGlu-C20 diacid])LGPILPPTNVGSNT[Hyp]-NH2; disulfide 2-7): the EC50 turned out to be 0.03 nM.
The result for `CC[C@H](C)[C@H](NC(=O)[C@@H]1CCCN1C(=O)[C@H](CC(N)=O)NC(=O)[C@H](CC(C)C)NC(=O)[C@H](CC(N)=O)NC(=O)[C@H](CC(N)=O)NC(=O)[C@H](CO)NC(=O)[C@H](CO)NC(=O)[C@H](Cc1c[nH]cn1)NC(=O)[C@H](CCCNC(=N)N)NC(=O)[C@H](CC(C)C)NC(=O)[C@H](Cc1ccccc1)NC(=O)[C@H](CC(=O)O)NC(=O)[C@H](C)NC(=O)[C@H](CC(C)C)NC(=O)[C@H](CCCNC(=N)N)NC(=O)[C@H](CCC(N)=O)NC(=O)[C@@H](NC(=O)[C@H](C)NC(=O)[C@@H]1CSSC[C@H](NC(=O)[C@H](CCCCN)NC(=O)CC[C@H](NC(=O)CCCCCCCCCCCCCCCCCCC(=O)O)C(=O)O)C(=O)N[C@@H](CC(N)=O)C(=O)N[C@@H]([C@@H](C)O)C(=O)N[C@@H](C)C(=O)N[C@@H]([C@@H](C)O)C(=O)N1)[C@@H](C)O)C(=O)N[C@@H](CC(C)C)C(=O)N1CCC[C@H]1C(=O)N1CCC[C@H]1C(=O)N[C@H](C(=O)N[C@@H](CC(N)=O)C(=O)N[C@H](C(=O)NCC(=O)N[C@@H](CO)C(=O)N[C@@H](CC(N)=O)C(=O)N[C@H](C(=O)N1CCC[C@H]1C(N)=O)[C@@H](C)O)C(C)C)[C@@H](C)O` [PD165] ({C20 diacid-γGlu}-KCNTATCATQRLADFLRHSSNNLNPILPPTNVGSNTP-NH2; disulfide 2-7 (inferred)) reads 0.05 nM; that for `CC[C@H](C)[C@H](NC(=O)[C@@H]1CCCN1C(=O)CNC(=O)[C@H](CC(C)C)NC(=O)[C@H](CC(N)=O)NC(=O)[C@H](CCCCNC(=O)CC[C@H](NC(=O)CCCCCCCCCCCCCCCCC(=O)O)C(=O)O)NC(=O)[C@H](CO)NC(=O)[C@H](CO)NC(=O)[C@H](Cc1c[nH]cn1)NC(=O)[C@H](CCCNC(=N)N)NC(=O)[C@H](CC(C)C)NC(=O)[C@H](Cc1ccccc1)NC(=O)[C@H](CC(=O)O)NC(=O)[C@H](C)NC(=O)[C@H](CC(C)C)NC(=O)[C@H](CCCNC(=N)N)NC(=O)[C@H](CCC(N)=O)NC(=O)[C@@H](NC(=O)[C@H](C)NC(=O)[C@@H]1CSSC[C@H](NC(=O)[C@@H](N)CCCNC(=N)N)C(=O)N[C@@H](CC(N)=O)C(=O)N[C@@H]([C@@H](C)O)C(=O)N[C@@H](C)C(=O)N[C@@H]([C@@H](C)O)C(=O)N1)[C@@H](C)O)C(=O)N[C@@H](CC(C)C)C(=O)N1CCC[C@H]1C(=O)N1CCC[C@H]1C(=O)N[C@H](C(=O)N[C@@H](CC(N)=O)C(=O)N[C@H](C(=O)NCC(=O)N[C@@H](CO)C(=O)N[C@@H](CC(N)=O)C(=O)N[C@H](C(=O)N1C[C@H](O)C[C@H]1C(N)=O)[C@@H](C)O)C(C)C)[C@@H](C)O` [PD092] (H-RCNTATCATQRLADFLRHSSK([γGlu-C18 diacid])NLGPILPPTNVGSNT[Hyp]-NH2; disulfide 2-7), 0.016 nM.

The term EC50 denotes the concentration at which the effect is half-maximal.

The record behind these values is patent publication US20260166128A1, “HUMAN AMYLIN ANALOG, AND DERIVATIVE THEREOF AND USE THEREOF” (priority 2022, published 2026).
